Results as given in patent US8143408B2, “N-(8-heteroaryltetrahydronaphtalene-2yl) or N-(5-heteroarylchromane-3-yl) carboxamide derivatives for the treatment of pain” (AstraZeneca AB, priority 2007, dated 2012).

These compounds were tested against T1, Nav1.7 voltage-gated sodium channel (Homo sapiens, UniProt Q15858) (assay: Whole-cell voltage clamp electrophysiology assay). Conditions: cells stably expressing the voltage-gated sodium channel of interest.
T1 construct: Gene(s) encoding the full-length protein of the voltage-gated sodium channel of interest are cloned and expressed; expressed in transfected cells
T1 sequence (Q15858 whole entry): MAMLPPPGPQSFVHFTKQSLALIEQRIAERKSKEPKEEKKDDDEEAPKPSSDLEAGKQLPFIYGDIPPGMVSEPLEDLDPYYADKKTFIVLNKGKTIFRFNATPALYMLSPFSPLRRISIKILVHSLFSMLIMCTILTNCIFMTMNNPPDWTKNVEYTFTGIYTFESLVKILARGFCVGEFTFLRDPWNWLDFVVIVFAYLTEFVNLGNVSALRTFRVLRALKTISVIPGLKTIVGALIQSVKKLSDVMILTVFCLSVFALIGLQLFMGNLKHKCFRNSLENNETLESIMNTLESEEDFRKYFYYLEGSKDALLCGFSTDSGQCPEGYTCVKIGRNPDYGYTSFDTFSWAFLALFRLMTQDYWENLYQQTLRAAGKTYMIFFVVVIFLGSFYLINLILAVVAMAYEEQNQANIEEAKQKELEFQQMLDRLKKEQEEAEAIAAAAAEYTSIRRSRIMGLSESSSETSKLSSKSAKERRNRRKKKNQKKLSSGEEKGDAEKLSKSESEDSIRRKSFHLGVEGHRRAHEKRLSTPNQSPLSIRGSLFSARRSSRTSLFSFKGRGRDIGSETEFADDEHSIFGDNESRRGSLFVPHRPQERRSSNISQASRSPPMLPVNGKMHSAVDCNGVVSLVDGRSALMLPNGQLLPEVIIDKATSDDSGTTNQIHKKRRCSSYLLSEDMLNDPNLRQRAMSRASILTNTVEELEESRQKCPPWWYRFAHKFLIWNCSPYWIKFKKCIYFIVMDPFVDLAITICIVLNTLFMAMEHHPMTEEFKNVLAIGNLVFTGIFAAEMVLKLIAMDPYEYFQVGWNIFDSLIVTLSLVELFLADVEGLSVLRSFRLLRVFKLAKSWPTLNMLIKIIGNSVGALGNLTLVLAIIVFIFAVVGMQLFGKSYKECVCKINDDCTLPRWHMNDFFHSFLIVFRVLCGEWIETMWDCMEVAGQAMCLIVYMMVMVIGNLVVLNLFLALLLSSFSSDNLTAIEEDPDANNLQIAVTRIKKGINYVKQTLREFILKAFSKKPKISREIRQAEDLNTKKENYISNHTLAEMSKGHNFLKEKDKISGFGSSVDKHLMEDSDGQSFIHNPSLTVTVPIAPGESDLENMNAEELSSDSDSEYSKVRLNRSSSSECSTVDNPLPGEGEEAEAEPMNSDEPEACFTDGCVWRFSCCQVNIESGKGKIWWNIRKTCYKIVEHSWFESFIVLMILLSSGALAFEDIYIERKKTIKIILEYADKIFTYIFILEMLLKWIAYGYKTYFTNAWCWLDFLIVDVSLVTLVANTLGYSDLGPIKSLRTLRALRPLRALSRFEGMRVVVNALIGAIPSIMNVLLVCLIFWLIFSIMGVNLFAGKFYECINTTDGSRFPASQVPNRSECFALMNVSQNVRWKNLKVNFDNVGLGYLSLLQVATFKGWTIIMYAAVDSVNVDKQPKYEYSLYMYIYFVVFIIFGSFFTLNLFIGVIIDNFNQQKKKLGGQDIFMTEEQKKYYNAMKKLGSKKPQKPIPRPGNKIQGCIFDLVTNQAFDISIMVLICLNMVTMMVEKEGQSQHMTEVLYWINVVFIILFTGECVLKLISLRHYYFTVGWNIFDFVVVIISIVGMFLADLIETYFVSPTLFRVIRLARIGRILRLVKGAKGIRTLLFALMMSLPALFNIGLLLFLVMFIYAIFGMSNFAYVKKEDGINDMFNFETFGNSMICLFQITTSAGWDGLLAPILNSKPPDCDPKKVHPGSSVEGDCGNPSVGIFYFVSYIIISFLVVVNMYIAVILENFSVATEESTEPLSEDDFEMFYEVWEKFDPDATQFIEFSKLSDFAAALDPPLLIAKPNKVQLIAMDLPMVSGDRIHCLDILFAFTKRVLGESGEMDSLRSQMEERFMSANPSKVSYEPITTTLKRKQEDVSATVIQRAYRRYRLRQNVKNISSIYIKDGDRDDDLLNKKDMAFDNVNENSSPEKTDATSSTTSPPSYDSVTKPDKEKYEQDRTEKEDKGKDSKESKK
Assay type: cell-based
Outline: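 Cells expressing full-length channel, exposed to drug by integrated pipetting on automated patch-clamp platforms or by microperfusion in conventional whole-cell patch clamp. Channels activated by a voltage protocol depolarising from a defined holding potential; buffers per platform manufacturer.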

Compound	IC50 [nM]
CCc1ncc(-c2cccc3c2C[C@H](NC(=O)c2ccc(C(=O)NCCC(F)(F)F)nc2)CO3)cn1 [Example 174, N^5-[(3S)-5-(2-ethylpyrimidin-5-yl)-3,4-dihydro-2H-chromen-3-yl]-N^2-(3,3,3-trifluoropropyl)pyridine-2,5-dicarboxamide]	200
COc1ncc(-c2cccc3c2C[C@H](NC(=O)c2ccc(C(=O)NCCC(F)(F)F)nc2)CO3)cc1F [Example 179, N^5-[(3S)-5-(5-fluoro-6-methoxypyridin-3-yl)-3,4-dihydro-2H-chromen-3-yl]-N^2-(3,3,3-trifluoropropyl)pyridine-2,5-dicarboxamide]	200
COc1ncc(-c2cccc3c2C[C@H](NC(=O)c2ccc(S(=O)(=O)C4CCCC4)nc2)CO3)cn1 [Example 181, 6-(cyclopentylsulfonyl)-N-[(3S)-5-(2-methoxypyrimidin-5-yl)-3,4-dihydro-2H-chromen-3-yl]nicotinamide]	501
Cc1ncc(-c2cccc3c2C[C@H](NC(=O)c2ccc(C(=O)NCCCOC(C)C)nc2)CO3)cn1 [Example 186, N^2-(3-isopropoxypropyl)-N^5-[(3S)-5-(2-methylpyrimidin-5-yl)-3,4-dihydro-2H-chromen-3-yl]pyridine-2,5-dicarboxamide]	2000
COc1ncc(-c2cccc3c2C[C@H](NC(=O)c2ccc(C(=O)NCCCOC(C)C)nc2)CO3)cn1 [Example 187, N^2-(3-isopropoxypropyl)-N^5-[(3S)-5-(2-methoxypyrimidin-5-yl)-3,4-dihydro-2H-chromen-3-yl]pyridine-2,5-dicarboxamide]	1580
COc1ncc(-c2cccc3c2C[C@H](NC(=O)c2ccnc(OCCOCC(F)(F)F)c2)CC3)cn1 [Example 190, N-[(2R)-8-(2-methoxypyrimidin-5-yl)-1,2,3,4-tetrahydronaphthalen-2-yl]-2-[2-(2,2,2-trifluoroethoxy)ethoxy]isonicotinamide]	7940
COc1ncc(-c2cccc3c2C[C@H](NC(=O)c2ccc(C(=O)N(C)CC(F)(F)F)nc2)CO3)cc1F [Example 192, N^5-[(3S)-5-(5-fluoro-6-methoxypyridin-3-yl)-3,4-dihydro-2H-chromen-3-yl]-N^2-methyl-N^2-(2,2,2-trifluoroethyl)pyridine-2,5-dicarboxamide]	631
COc1ncc(-c2cccc3c2C[C@H](NC(=O)c2cnc(NCCC(F)(F)F)nc2)CO3)cn1 [Example 195, N-[(3S)-5-(2-methoxypyrimidin-5-yl)-3,4-dihydro-2H-chromen-3-yl]-2-[(3,3,3-trifluoropropyl)amino]pyrimidine-5-carboxamide]	398
CN(CC(F)(F)F)C(=O)c1ccc(C(=O)N[C@@H]2COc3cccc(-c4cnc(C5CC5)nc4)c3C2)cn1 [Example 196, N^5-[(3S)-5-(2-cyclopropylpyrimidin-5-yl)-3,4-dihydro-2H-chromen-3-yl]-N^2-methyl-N^2-(2,2,2-trifluoroethyl)pyridine-2,5-dicarboxamide]	501
O=C(N[C@@H]1COc2cccc(-c3cnc(C4CC4)nc3)c2C1)c1ccc(C(=O)NCCC(F)(F)F)nc1 [Example 197, N^5-[(3S)-5-(2-cyclopropylpyrimidin-5-yl)-3,4-dihydro-2H-chromen-3-yl]-N^2-(3,3,3-trifluoropropyl)pyridine-2,5-dicarboxamide]	158
CN(CCC(F)(F)F)C(=O)c1ccc(C(=O)N[C@@H]2COc3cccc(-c4cnc(C5CC5)nc4)c3C2)cn1 [Example 198, N^5-[(3S)-5-(2-cyclopropylpyrimidin-5-yl)-3,4-dihydro-2H-chromen-3-yl]-N^2-methyl-N^2-(3,3,3-trifluoropropyl)pyridine-2,5-dicarboxamide]	501
O=C(N[C@@H]1COc2cccc(-c3cnc(C4CC4)nc3)c2C1)c1ccn(CCC(F)(F)F)c(=O)c1 [Example 199, N-[(3S)-5-(2-cyclopropylpyrimidin-5-yl)-3,4-dihydro-2H-chromen-3-yl]-2-oxo-1-(3,3,3-trifluoropropyl)-1,2-dihydropyridine-4-carboxamide]	501
COc1ncc(-c2cccc3c2C[C@H](NC(=O)c2cnc(NCCC(F)(F)F)nc2)CO3)cc1F [Example 200, N-[(3S)-5-(5-fluoro-6-methoxypyridin-3-yl)-3,4-dihydro-2H-chromen-3-yl]-2-[(3,3,3-trifluoropropyl)amino]pyrimidine-5-carboxamide]	316
Cc1ncc(-c2cccc3c2C[C@H](NC(=O)c2cnc(NCCC(F)(F)F)nc2)CO3)cn1 [Example 201, N-[(3S)-5-(2-methylpyrimidin-5-yl)-3,4-dihydro-2H-chromen-3-yl]-2-[(3,3,3-trifluoropropyl)amino]pyrimidine-5-carboxamide]	398

Other lines, results leading:

IC50 [nM]	Compound
200	COc1ncc(-c2cccc3c2C[C@H](NC(=O)c2ccnc(OCCOCC(F)(F)F)c2)CO3)cn1 [Example 172, N-[(3S)-5-(2-methoxypyrimidin-5-yl)-3,4-dihydro-2H-chromen-3-yl]-2-[2-(2,2,2-trifluoroethoxy)ethoxy]isonicotinamide]
1580	Cc1ncc(-c2cccc3c2C[C@H](NC(=O)c2ccc(C(=O)N(C)CC(F)(F)F)nc2)CO3)cn1 [Example 173, N^2-methyl-N^5-[(3S)-5-(2-methylpyrimidin-5-yl)-3,4-dihydro-2H-chromen-3-yl]-N^2-(2,2,2-trifluoroethyl)pyridine-2,5-dicarboxamide]
2510	CS(=O)(=O)c1ccc(-c2cccc3c2C[C@H](NC(=O)c2ccc(OCCOCC(F)(F)F)nc2)CO3)cn1 [Example 175, N-{(3S)-5-[6-(methylsulfonyl)pyridin-3-yl]-3,4-dihydro-2H-chromen-3-yl}-6-[2-(2,2,2-trifluoroethoxy)ethoxy]nicotinamide]
126	N#Cc1ccc(-c2cccc3c2C[C@H](NC(=O)c2ccc(OCCOCC(F)(F)F)nc2)CO3)cn1 [Example 176, N-[(3S)-5-(6-cyanopyridin-3-yl)-3,4-dihydro-2H-chromen-3-yl]-6-[2-(2,2,2-trifluoroethoxy)ethoxy]nicotinamide]
50.1	O=C(N[C@@H]1COc2cccc(-c3cnc(C4CC4)nc3)c2C1)c1ccc(OCCOCC(F)(F)F)nc1 [Example 177, N-[(3S)-5-(2-cyclopropylpyrimidin-5-yl)-3,4-dihydro-2H-chromen-3-yl]-6-[2-(2,2,2-trifluoroethoxy)ethoxy]nicotinamide]
63.1	CCc1ncc(-c2cccc3c2C[C@H](NC(=O)c2ccc(OCCOCC(F)(F)F)nc2)CO3)cn1 [Example 178, N-[(3S)-5-(2-ethylpyrimidin-5-yl)-3,4-dihydro-2H-chromen-3-yl]-6-[2-(2,2,2-trifluoroethoxy)ethoxy]nicotinamide]
316	COc1ncc(-c2cccc3c2C[C@H](NC(=O)c2ccc(OCCOCC(F)(F)F)nc2)CO3)cc1F [Example 180, N-[(3S)-5-(5-fluoro-6-methoxypyridin-3-yl)-3,4-dihydro-2H-chromen-3-yl]-6-[2-(2,2,2-trifluoroethoxy)ethoxy]nicotinamide]
63.1	Cc1cncc(-c2cccc3c2C[C@H](NC(=O)c2ccc(OCCOCC(F)(F)F)nc2)CO3)n1 [Example 182, N-[(3S)-5-(6-methylpyrazin-2-yl)-3,4-dihydro-2H-chromen-3-yl]-6-[2-(2,2,2-trifluoroethoxy)ethoxy]nicotinamide]
316	Cc1ncc(-c2cccc3c2C[C@H](NC(=O)c2ccc(C(=O)NCCC(F)(F)F)nc2)CO3)cn1 [Example 183, N^5-[(3S)-5-(2-methylpyrimidin-5-yl)-3,4-dihydro-2H-chromen-3-yl]-N^2-(3,3,3-trifluoropropyl)pyridine-2,5-dicarboxamide]
501	COc1ncc(-c2cccc3c2C[C@H](NC(=O)c2ccc(OCCOC(C)C)nc2)CO3)cn1 [Example 184, 6-(2-isopropoxyethoxy)-N-[(3S)-5-(2-methoxypyrimidin-5-yl)-3,4-dihydro-2H-chromen-3-yl]nicotinamide]
316	Cc1ncc(-c2cccc3c2C[C@H](NC(=O)c2ccc(OCCOC(C)C)nc2)CO3)cn1 [Example 185, 6-(2-isopropoxyethoxy)-N-[(3S)-5-(2-methylpyrimidin-5-yl)-3,4-dihydro-2H-chromen-3-yl]nicotinamide]
251	Cc1ncc(-c2cccc3c2C[C@H](NC(=O)c2ccc(C(=O)NCCCC(F)(F)F)nc2)CO3)cn1 [Example 188, N^5-[(3S)-5-(2-methylpyrimidin-5-yl)-3,4-dihydro-2H-chromen-3-yl]-N^2-(4,4,4-trifluorobutyl)pyridine-2,5-dicarboxamide]
79.4	Cc1ncc(-c2cccc3c2C[C@H](NC(=O)c2ccc(OCCOCC(F)(F)F)nc2)CO3)cn1 [Example 189, N-[(3S)-5-(2-methylpyrimidin-5-yl)-3,4-dihydro-2H-chromen-3-yl]-6-[2-(2,2,2-trifluoroethoxy)ethoxy]nicotinamide]
794	COc1ncc(-c2cccc3c2C[C@H](NC(=O)c2ccc(C(=O)N(C)CC(F)(F)F)nc2)CO3)cn1 [Example 191, N^5-[(3S)-5-(2-methoxypyrimidin-5-yl)-3,4-dihydro-2H-chromen-3-yl]-N^2-methyl-N^2-(2,2,2-trifluoroethyl)pyridine-2,5-dicarboxamide]
158	COc1ncc(-c2cccc3c2C[C@H](NC(=O)c2ccc(COCC(F)(F)F)nc2)CO3)cc1F [Example 193, N-[(3S)-5-(5-fluoro-6-methoxypyridin-3-yl)-3,4-dihydro-2H-chromen-3-yl]-6-[(2,2,2-trifluoroethoxy)methyl]nicotinamide]
200	COc1ncc(-c2cccc3c2C[C@H](NC(=O)c2ccc(COCC(F)(F)F)nc2)CO3)cn1 [Example 194, N-[(3S)-5-(2-methoxypyrimidin-5-yl)-3,4-dihydro-2H-chromen-3-yl]-6-[(2,2,2-trifluoroethoxy)methyl]nicotinamide]
794	Cc1cnc(-c2cccc3c2C[C@H](NC(=O)c2ccc(OCCOCC(F)(F)F)nc2)CO3)c(C)n1 [Example 202, N-[(3S)-5-(3,5-dimethylpyrazin-2-yl)-3,4-dihydro-2H-chromen-3-yl]-6-[2-(2,2,2-trifluoroethoxy)ethoxy]nicotinamide]
